Assay: Release of adenosine from dissolvable silk films in PBS
Format: physicochemical
Conditions: within 15 minutes of exposure to 37° C. PBS; ~0.5, 0.25 or 0.125 mg adenosine per 0.2 mm^2 film
Experimental: Rapid dissolution of films loaded with a dye and release of the dye from the films occur when the films are immersed in ˜37° C. buffer (FIG. 10). Dissolvable silk films loaded with an active agent (e.g., ˜0.5, 0.25 or 0.125 mg of adenosine per 0.2 mm^2 film) released the majority of the drug load (approx. 80%) within 15 minutes of exposure to 37° C. phosphate buffered saline (PBS) (Data not shown).

- drug load released from dissolvable silk films: approx. 80%
SMILES: Nc1ncnc2c1ncn2[C@@H]1O[C@H](CO)[C@@H](O)[C@H]1O [adenosine]
